We go through 26 compounds from patent US6977262B2, “Dihydropyrazolopyridine compounds and pharmaceutical use thereof” (Mitsubishi Pharma Corporation, priority 2001, dated 2005).

A word on the melting point: it is the temperature of the solid-liquid transition. As to `Cc1ccsc1C1=C(C#N)C(c2cccc3nonc23)c2c[nH]nc2N1` (centres unmarked) [Example 292, 4-(2,1,3-Benzoxadiazol-4-yl)-5-cyano-4,7-dihydro-6-(3-methylthiophen-2-yl)-2H-pyrazolo[3,4-b]pyridine], the melting point came to 202 °C.
With `CCCC1=C(C#N)C(c2cccc3c2OCCC3)c2c[nH]nc2N1` (centres unmarked) [Example 136, 5-Cyano-4-(3,4-dihydro-2H-benzopyran-8-yl)-4,7-dihydro-6-propyl-2H-pyrazolo[3,4-b]pyridine] the figure was 230 °C; with `N#CC1=C(C2CCC2)Nc2n[nH]cc2C1c1cccc2nonc12` (centres unmarked) [Example 322, 4-(2,1,3-Benzoxadiazol-4-yl)-5-cyano-6-cyclobutyl-4,7-dihydro-2H-pyrazolo[3,4-b]pyridine], 194 °C; with `CCCC1=C(C#N)C(c2ccccc2Cl)c2c(OC(=O)OC(C)(C)C)n[nH]c2N1` (centres unmarked) [Example 328, 3-t-Butoxycarbonyloxy-4-(2-chlorophenyl)-5-cyano-4,7-dihydro-6-propyl-1 H-pyrazolo[3,4-b]pyridine], 182 °C.
For `CCCC1=C(C#N)C(c2cccc([N+](=O)[O-])c2Br)c2c[nH]nc2N1` (centres unmarked) [Example 189, 4-(2-Bromo-3-nitrophenyl)-5-cyano-4,7-dihydro-6-propyl-2H-pyrazolo[3,4-b]pyridine] the value was 250 to 255 °C (dec.); for `N#CC1=C(C2CC(=O)N(Cc3ccccc3)C2)Nc2n[nH]cc2C1c1ccccc1Cl` (centres unmarked) [Example 1083, 6-(1-Benzyl-2-oxopyrrolidin-4-yl)-4-(2-chlorophenyl)-5-cyano-4,7-dihydro-2H-pyrazolo[3,4-b]pyridine], above 230 °C.
With `CCCC1=C(C(=O)OCC)C(c2ccccc2Cl)c2c[nH]nc2N1` (centres unmarked) [Example 27, Ethyl 4-(2-chlorophenyl)-4,7-dihydro-6-propyl-2H-pyrazolo[3,4-b]pyridine-5-carboxylate] the figure was 202 to 205 °C; with `N#CC1=C(c2ccccc2)Nc2n[nH]cc2C1c1cccc(C#N)c1Br` (centres unmarked) [Example 147, 4-(2-Bromo-3-cyanophenyl)-5-cyano-4,7-dihydro-6-phenyl-2H-pyrazolo[3,4-b]pyridine], above 270 °C; with `CCCC1=C(C(=O)OCC)C(c2ccccc2Cl)c2cnn(C(=O)C=Cc3ccccc3)c2N1` (centres unmarked) [Example 228, Ethyl 4-(2-chlorophenyl)-1-cinnamoyl-4,7-dihydro-6-propyl-1H-pyrazolo[3,4-b]pyridine-5-carboxylate], 131 to 134 °C.
The compound `N#CC1=C(C2CCCCN2)Nc2n[nH]cc2C1c1cccc(C#N)c1Br.O=C(O)C(F)(F)F` (centres unmarked) showed a melting point of 232 °C.
With `N#CC1=C(C2CCN(C(=O)c3ccccc3)CC2)Nc2n[nH]cc2C1c1cccc2nonc12` (centres unmarked) [Example 1026, 4-(2,1,3-Benzoxadiazol-4-yl)-6-(1-benzoylpiperidin-4-yl)-5-cyano-4,7-dihydro-2H-pyrazolo[3,4-b]pyridine] the figure was 228 °C.
For `CCCC1=C(C(=O)OCC)C(c2ccccc2C#N)c2c[nH]nc2N1` (centres unmarked) [Example 42, Ethyl 4-(2-cyanophenyl)-4,7-dihydro-6-propyl-2H-pyrazolo[3,4-b]pyridine-5-carboxylate] the value was 211 °C.
For `CCCC1=C(C(=O)OCC)C(c2ccccc2Cl)c2cnn(C(=O)c3ccccc3)c2N1` (centres unmarked) [Example 210, Ethyl 1-benzoyl-4-(2-chlorophenyl)-4,7-dihydro-6-propyl-1H-pyrazolo[3,4-b]pyridine-5-carboxylate] the value was 115 °C; for `CCCC1=C(C(=O)OCC)C(c2cccc3nonc23)c2c[nH]nc2N1` (single isomer, unassigned; (-)) [Example 117, (−)Ethyl 4-(2,1,3-benzoxadiazol-4-yl)-4,7-dihydro-6-propyl-2H-pyrazolo[3,4-b]pyridine-5-carboxylate], 160 °C; for `CCCN1CCC(C2=C(C#N)C(c3cccc4nonc34)c3c[nH]nc3N2)CC1` (centres unmarked) [Example 1034, 4-(2,1,3-Benzoxadiazol-4-yl)-5-cyano-4,7-dihydro-6-(1-propylpiperidin-4-yl)-2H-pyrazolo[3,4-b]pyridine], 246 °C.
For `N#CC1=C(CO)Nc2n[nH]cc2C1c1ccccc1Cl` (centres unmarked) [Example 252, 4-(2-Chlorophenyl)-5-cyano-4,7-dihydro-6-hydroxymethyl-2H-pyrazolo[3,4-b]pyridine], the melting point was 205 to 210 °C (dec.).
With `CCCCC1=C(C#N)C(c2cccc3nonc23)c2c[nH]nc2N1` (centres unmarked) [Example 177, 4-(2,1,3-Benzoxadiazol-4-yl)-6-butyl-5-cyano-4,7-dihydro-2H-pyrazolo[3,4-b]pyridine] the figure was 200 °C.
For `CCOC(=O)C1=C(C(F)(F)F)Nc2n[nH]cc2C1c1ccccc1Cl.O=C(O)/C=C\C(=O)O` (centres unmarked) [Example 14, Ethyl 4-(2-chlorophenyl)-4,7-dihydro-6-trifluoromethyl-2H-pyrazolo[3,4-b]pyridine-5-carboxylate maleate] the value was 171 to 172 °C.
For `CCCC1=C(C#N)C(c2ccccc2Cl)c2c(n[nH]c2C2CCCC2)N1` (centres unmarked) [Example 314, 4-(2-Chlorophenyl)-5-cyano-3-cyclopentyl-4,7-dihydro-6-propyl-2H-pyrazolo[3,4-b]pyridine] the value was above 270 °C; for `CNCCC1=C(C#N)C(c2cccc3nonc23)c2c[nH]nc2N1` (centres unmarked) [Example 1016, 4-(2,1,3-Benzoxadiazol-4-yl)-5-cyano-4,7-dihydro-6-(2-(N-methylamino)ethyl)-2H-pyrazolo[3,4-b]pyridine], 174 °C.
Compound `CC(C)(C)C1=C(C#N)C(c2cccc3nonc23)c2c[nH]nc2N1` (centres unmarked) [Example 320, 4-(2,1,3-Benzoxadiazol-4-yl)-6-t-butyl-5-cyano-4,7-dihydro-2H-pyrazolo[3,4-b]pyridine] showed a melting point of 204 °C.
As to `N#CC1=C(c2ccccc2)Nc2n[nH]cc2C1c1cccc(F)c1F` (centres unmarked) [Example 149, 5-Cyano-4-(2,3-difluorophenyl)-4,7-dihydro-6-phenyl-2H-pyrazolo[3,4-b]pyridine], the melting point came to 165 °C.
For `CCOC(=O)C1=C(C)Nc2n[nH]cc2C1c1ccccc1OC` (centres unmarked) [Example 2, Ethyl 4,7-dihydro-4-(2-methoxyphenyl)-6-methyl-2H-pyrazolo[3,4-b]pyridine-5-carboxylate] the value was 196 to 200 °C; for `CCCC1=C(C(=O)OCC)C(c2cccc3nsnc23)c2c[nH]nc2N1` (centres unmarked) [Example 112, Ethyl 4-(2,1,3-benzothiadiazol-4-yl)-4,7-dihydro-6-propyl-2H-pyrazolo[3,4-b]pyridine-5-carboxylate], 180 °C; for `CCCC1=C(C(=O)OCC)C(c2csc3ccccc23)c2c[nH]nc2N1` (centres unmarked) [Example 75, Ethyl 4-(benzo[b]thiophen-3-yl)-4,7-dihydro-6-propyl-2H-pyrazolo[3,4-b]pyridine-5-carboxylate], 222 °C.
With `CCCC1=C(C(=O)OCC)C(c2cccc(C#N)c2Br)c2c[nH]nc2N1` (centres unmarked) [Example 183, Ethyl 4-(2-bromo-3-cyanophenyl)-4,7-dihydro-6-propyl-2H-pyrazolo[3,4-b]pyridine-5-carboxylate] the figure was 210 to 212 °C (dec.).
